Laboratory results from patent US20030017976A1, “Therapeutic properties of liposome-encapsulated immunomodulators” (priority 1998, published 2003).
Several values for one entry are separate records, joined by “and”; a condition that tells them apart may be missing. Identical values can stand only once. Like-named read-outs stand apart in the source and are kept apart here. Marks after values point to notes of the source that are not given here.

Columns and labels:
[1] = system: C57BL/6 mice; test: Prevention of CPT-11 induced intestinal damage and morbidity by oral immunomodulator; format: in vivo, mouse; settings: for Death / Morbidity: 4 daily i.p., oral saline or free-form MTP-PE 100 ug/dose for one week before
Procedure: Experimental Design and Methods. […] Tissue was harvested 7 days after the last injection (small intestine and colon distal to the cecum). Histology was prepared. Some mice were monitored for the presence of drug toxicity.
Example 6 has shown that 100, 150, and 200 mg/kg at 4 consecutive i.p. administrations are highly toxic to C57BL/6 mice.

[2] = system: CT-26P colon carcinoma; test: Combination therapy of CT-26P colon carcinoma with CPT-11 and oral liposomal JBT3002; format: in vivo, mouse; settings: day 17; for Liver Weights, mean / Liver Weights, single mice: alone or + oral liposomal JBT3002 1 μg/dose
Procedure: This course of therapy was repeated weekly for about three weeks prior to tissue harvest. Experimental Groups/Procedures: 40 Balb/c mice were divided into 8 groups of 5 mice each. On day 0, the spleens of the mice were injected with 15,000 cultured CT-26P cells. The groups were then treated as follows: The spleens of Balb/c mice were injected with 15,000 cultured CT-26P colon carcinoma cells on day 0. […] Treated mice received two weeks of chemotherapy and three weeks of the macrophage activator. Tissues were harvested on day 17. The spleens and livers were weighed, the extent of metastasis was graded (denoted below) and histology prepared.

[3] = system: L3.6pl human pancreatic tumors; test: Therapy of L3.6pl human pancreatic tumors in nude mice; format: in vivo, mouse; settings: CPT-11 100 mg/kg i.p. once a week +/− oral JBT 3002 (tablet) 0.05 mcg/dose
Procedure: Table 19 (A, B, C). Therapy of human pancreatic carcinoma liver metastasis. The pancreas of nude mice were injected with 1×10^6 viable human pancreatic cancer L3.6pl cells. […] This regimen was repeated on a weekly basis for 3 weeks. The mice were killed. Pancreatic tumors, liver metastases, and lymph node metastasis were quantified.

[4] = system: IL-15; test: Ileum and liver lesion histology, BrdUrd and IL-15 expression after JBT 3002 and CPT-11; format: in vivo, mouse
Procedure: BALB/c mice were injected with CT-26 colon cancer cells into the spleen. […] Four days after the last injection of CPT-11, some mice were killed and their ileum was harvested and prepared for histology, immunohistochemistry, and molecular biology analyses.

[5] = Body weight change and deaths during therapy of CT-26 bearing BALB/c mice; format: in vivo, mouse
[6] = system: C57BL/6 mice
[7] = system: CT-26 colon cancer liver metastasis; test: Combination therapy of MTP-PE and CPT-11 for CT-26 colon cancer liver metastasis
[8] = system: CT-26 colon carcinoma; test: Therapy of experimental liver metastasis of CT-26 colon carcinoma with CPT-11 and oral JBT 3002
[9] = Table 10, oral MLV-HBSS, CPT-11 100 mg/kg i.p. once a week, day 23
[10] = Table 11, CPT-11 100 mg/kg i.p. once a week alone, day 24
[11] = Table 12, oral MLV-HBSS, CPT-11 100 mg/kg 4 daily i.p. (intensive), day 14
[12] = Table 13, oral MLV-HBSS, CPT-11 100 mg/kg i.p. once a week, day 23
[13] = CPT-11 50 mg/kg, oral saline or MTP-PE
[14] = Table 14, MLV-JBT 3002 1.0 μg/dose or FF-JBT 3002 0.05 μg/dose oral 3 days, CPT-11 100 mg/kg 4 daily i.p., day 21
[15] = Table 15, oral JBT 3002 0.05 μg/dose 3 consecutive days and/or CPT-11 100 mg/kg 4 daily i.p., day 21
[16] = Table 16, oral JBT3002 0.05 μg dose thrice weekly 3 weeks and/or CPT-11 100 mg/kg i.p. once a week, day 24

SMILES: CCc1c2c(nc3ccc(OC(=O)N4CCC(N5CCCCC5)CC4)cc13)-c1cc3c(c(=O)n1C2)COC(=O)[C@]3(O)CC [CPT-11, Irinotecan]
- Death ([1]; CPT-11 100 mg/kg): 0/10
- Morbidity ([1]; CPT-11 100 mg/kg): 8/10
- damage to intestinal tissue ([1]; CPT-11 100 mg/kg, oral MTP-PE 100 μg/dose three consecutive days per week, C57BL/6 mice): induces loss of structural integrity of duodenal and large colon crypts
- Death ([1]; CPT-11 150 mg/kg): 6/10
- Morbidity ([1]; CPT-11 150 mg/kg): 10/10
- Death ([1]; CPT-11 200 mg/kg): 9/10
- Morbidity ([1]; CPT-11 200 mg/kg): 10/10
- GI toxicity (histology of intestinal villi and lumen) ([1]; oral PBS or MTP-PE 100 μg/dose 3×/week for 3 weeks, then 4 i.p. injections of CPT-11): severe damage to the intestinal villi and lumen
- intestinal toxicity (histology) ([1]; oral saline or JBT3002 0.1, 1.0 and 10 μg/dose in PC liposomes, then CPT-11 100 mg/kg i.p. 4 days): induced severe toxicity
- Spleen Weights, mean ([2]; CPT-11 25 mg/kg once a week, alone or + oral JBT3002 1 μg/dose in PC liposomes 3x/week): 1.284 ± 0.257 grams
- Spleen Weights, single mice ([2]; CPT-11 25 mg/kg once a week, alone or + oral JBT3002 1 μg/dose in PC liposomes 3x/week, 25 mg/kg): 1.486 grams and 0.888 grams and 1.056 grams and 1.588 grams and 1.403 grams
- Liver Weights, mean ([2]; CPT-11 25 mg/kg once a week): 1.670 ± 0.301 grams
- Liver Weights, single mice ([2]; CPT-11 25 mg/kg once a week, 25 mg/kg): 1.416 grams and 1.460 grams and 2.246 grams
- Spleen Weights, mean ([2]; CPT-11 50 mg/kg once a week, alone or + oral JBT3002 1 μg/dose in PC liposomes 3x/week): 0.746 ± 0.561 grams
- Liver Weights, single mice ([2]; CPT-11 50 mg/kg once a week, 50 mg/kg): 1.407 grams and 1.205 grams and 1.525 grams
- Spleen Weights, mean ([2]; CPT-11 100 mg/kg once a week, alone or + oral JBT3002 1 μg/dose in PC liposomes 3x/week): 0.216 ± 0.110 grams
- Liver Weights, mean ([2]; CPT-11 100 mg/kg once a week): 1.203 ± 0.065 grams
- Liver Weights, single mice ([2]; CPT-11 100 mg/kg once a week, 100 mg/kg): 1.105 grams and 1.252 grams and 1.172 grams and 1.293 grams and 1.196 grams
- Incidence LN met ([3]; 31 days): 7/10
- Incidence WT/PC ([3]; 31 days): 0/10
- Incidence liver met ([3]; 31 days): 0/10
- Tumor weight, Average ([3]; 31 days): 152.10 mg
- Tumor weight, Max ([3]; 31 days): 375 mg
- Tumor weight, Median ([3]; 31 days): 117.5 mg
- Tumor weight, Min ([3]; 31 days): 0 mg
- tumor weight (range) ([3]; 31 days): (0-375) mg
- Tumor weight, single animals ([3]; 31 days after tumor cell injection, 100 mg/kg): 80 mg and 375 mg and 241 mg and 0 mg (2×) and 98 mg and 318 mg and 137 mg and 205 mg and 67 mg
- intestinal architecture of ileum (H&E) ([4]; CPT-11 100 mg/kg, JBT 3002 0.05 μg/dose): produces disruption of the intestinal architecture
- expression of IL-15 in the ileum ([4]; mouse, in vivo): significant decrease in expression of IL-15
- ΔBW [5, 9]: −1.7%
- ΔBW [5, 10]: −1.5%
- ΔBW [5, 11]: −17.6%
- ΔBW [5, 12]: 1.2%
- ΔBW ([5]; Table 14, MLV-JBT 3002 1.0 μg/dose or FF-JBT 3002 0.05 μg/dose oral 3 days, CPT-11 100 mg/kg 4 daily i.p., day not given): −24.0%
- Mice that died during therapy ([5]; Table 15, CPT-11 100 mg/kg 4 daily i.p. alone, 10 mice, 100 mg/kg): 7 of 10
- Survival ([6]; 100 mg/kg CPT-11 i.p. Day 1-4, C57BL6 mice): 5/5
- Survival ([6]; 150 mg/kg CPT-11 i.p. Day 1-4, C57BL6 mice): 3/5
- Survival ([6]; 200 mg/kg CPT-11 i.p. Day 1-4, C57BL6 mice): 0/5
- deaths ([6]; CPT-11 50, 75 or 100 mg/kg once a day for 4 days (i.p.)): None of the injected mice died
- lethal dose ([6]; i.p. Day 1-4, C57BL6 mice): 200 mg/kg
- Liver Median no. metastases [7, 13]: 30
- Liver weight [7, 13]: 2.0 ± 0.3
- Spleen Tumor size [7, 13]: 8.3 ± 2.0 mm
- Spleen Weight [7, 13]: 0.6 ± 0.2 g
- Death of mice ([7]; CPT-11 100 mg/kg, oral saline): ------------------All mice died.------------------------
- tumor burden of the liver ([7]; CPT-11 25-100 mg/kg, CT-26P injected into the spleen): dose-dependent reduction in tumor burden of the liver
- Liver metastasis Incidence [8, 9]: 5/5
- Liver weight [8, 9]: 1.8 ± 0.3^b g
- Spleen (primary) Incidence [8, 9]: 5/5
- Liver metastasis Incidence [8, 10]: 5/5
- Liver weight [8, 10]: 1.7 ± 0.3^c g
- Spleen (primary) Incidence [8, 10]: 5/5
- Liver metastasis Incidence [8, 11]: 2/5
- Liver weight [8, 11]: 1.2 ± 0.1 g
- Spleen (primary) Incidence [8, 11]: 5/5
- Liver metastasis Incidence [8, 12]: 5/5
- Liver weight [8, 12]: 2.6 ± 0.3 g
- Spleen (primary) Incidence [8, 12]: 5/5
- Liver metastasis Incidence [8, 14]: 0/5^b
- Liver weight [8, 14]: 1.2 ± 0.2 g
- Spleen tumor Incidence [8, 14]: 5/5^b
- Liver metastasis Incidence [8, 15]: 1/10^b
- Liver weight [8, 15]: 1.9 ± 0.3^c,d g
- Spleen tumor Incidence [8, 15]: 6/10^b
- Liver metastasis Incidence [8, 16]: 8/10
- Liver weight [8, 16]: 2.0 ± 0.9^c g
- Spleen tumor Incidence [8, 16]: 7/10
